Literature values, collected in paper PMC7926471 (Viruses, 2021).
pEC50: −log10 of the molar value.

Tested on: SARS-CoV-2
Conditions: pre and post treatment of Vero E6 cultures; cited from earlier work

CCN(CC)CCCC(C)Nc1ccnc2cc(Cl)ccc12 (centres unmarked) [Chloroquine, chloroquine diphosphate]
pEC50: 5.95
EC90: 6.9 µM
